Among the data in patent publication US4145444A, “Anti-inflammatory agent of benzoyl derivative” (priority 1977, dated 1979) are inhibition in vivo and inhibition values, retold here.

Like-named read-outs stand apart in the source and are kept apart here.

The test system of one test is hind paws of male rats. Put plainly: Anti-inflammatory effect: acute carragheenin edema method. Type of test: in vivo. The conditions noted are these: Rattus norvegicus, read-out: Anti-inf.: edema inhibition rate. The protocol: The edema was induced by subcutaneous injection of 1% carragheenin suspension in saline to the hind paws of male rats weighting 150 to 180 g. Each sample was orally given at the dosage of 100 mg/kg just before the inoculation of carragheenin.

A further test has as its system male mice. Put plainly: Analgesic effect: painful stretchings following intraperitoneal 0.7% acetic acid. Particulars: Mus musculus, po, read-out: Analgesic: percentage diminition of times of painful stretching.
The subject of another test is thrombus. Kind of test: Inhibiting effect on thrombosis (by-pass between left juglar vein and right carotid artery, silk thread). The format is in vivo, SD type male rates. The conditions noted are these: Rattus norvegicus, read-out: Thrombosis inh.: thrombosis inhibition rate. The protocol:
The inhibiting effects of the samples of the invention on thrombosis were tested by the following test method.
A 0.5 ml of 50 μ/ml of the heparin physiological saline was added through the polyethylene tube before the first blood circulation. After the blood circulation for 15 minutes, the circulation was stopped in the middle of the tubing at artery side with a pinch cock.
Then, 0.2 ml of the heparin physiological saline was added to remove the blood coagulates on the tubing wall and another new polyethylene tubing filled with the heparin solution and containing a piece of new silk thread was attached between the venous and artery tubing ends.
The blood circulation was reestablished by opening the pinch cock. After 15 minutes, the wet weight of thrombus on the silk thread was similarly measured.
In the same manner, the third circulation was performed and wet weight of thrombus measured.
The amount of thrombus was given by the equation A. [formula] Each sample was suspended in an aqueous solution of sodium carboxymethyl cellulose and the oral dose of the suspension (100 mg/kg) was performed at 5 hours before the first blood circulation.
The amount of thrombus after the oral dose of the sample was calculated in the same manner as that of control circulations.
The thrombosis inhibition rate was given by the equation B. [formula]

A further test relates to platelet. Put plainly: Blood platelet aggregation inhibiting effect (collagen-induced). The format is cell-based, rabbits. Particulars: Oryctolagus cuniculus, Platelet; 10^-4 mole, collagen inducer, rabbit PRP; read-out: Blood platelet agg. inh.: percentage inhibition of platelet aggregation. An excerpt: Male rabbits (Japan original white strain 3.3 to 3.6 kg) were anesthetized with Thiopental sodium and blood was sampled from the carotid artery.

[1] abbreviates: 100 mg/kg oral, carragheenin edema, male rats (Table 2).
[2] abbreviates: 100 mg/kg oral, 5 hours before first blood circulation, rats.

Experimental for male mice: Each sample was orally administered in the dosage of 100 mg/kg before injection of acetic acid.

For `O=C(c1ccccc1)c1ccccc1F` [compound 15], the figures for the inhibition in vivo at 100 mg/kg with hind paws of male rats (setting [1]), with male mice and with thrombus (setting [2]) were 61.4%, 18.5% and 26.5%, respectively. The inhibition at 100 µM with platelet is 23.2%.
For `CCCCCCCCc1ccc(C(=O)c2ccc(CCCC)cc2)cc1` [compound 101], in that order: 23.1%, 18.3%, 31.4% and 27.9%.
For `Cc1cc(C)c(C(=O)c2ccccc2F)c(C)c1` [compound 11], in that order: 62.3%, 13.9%, 42.9% and 16.5%.
In the case of `CCCCCCCCCCCc1ccc(C(=O)c2ccccc2)cc1` [compound 71], the inhibition in vivo at 100 mg/kg with hind paws of male rats (setting [1]) came to 20%; in the test with male mice it was 9.2%; in the test with thrombus (setting [2]), 11.4%. Moreover, in the test with platelet, the inhibition at 100 µM is 19.5%.
For `CCCCc1ccc(C(=O)c2ccccc2C)cc1` [compound 40], in that order: 58.1%, 20.3%, 30.3% and 11.9%.
The corresponding values for `Cc1ccccc1C(=O)c1c(C)c(C)cc(C)c1C` [compound 91] are 21.4%, 15.2%, 31% and 14.7%.
The corresponding values for `CCCCCc1ccc(C(=O)c2cccc(C)c2)cc1` [compound 89] are 27.6%, 4.3%, 13.2% and 22.6%.
In the case of `CCCCCCCCCCCc1ccc(C(=O)Cc2ccccc2)cc1` [compound 51], the inhibition in vivo at 100 mg/kg was 24.6% with hind paws of male rats (setting [1]), 18.3% with male mice and 13.5% in the test on thrombus (setting [2]). For the same molecule, the inhibition at 100 µM in the test with platelet is 9.5%.
As to `CCCc1ccc(C(=O)c2ccc(O)cc2)cc1` [compound 104], the inhibition in vivo at 100 mg/kg came out at 27.4% in the test with hind paws of male rats (setting [1]), 13.2% in the test on male mice and 30.5% with thrombus (setting [2]). For the same molecule, in the test on platelet, the inhibition at 100 µM came out at 25.3%.
`CCCCc1ccc(C(=O)c2cccc(C)c2)cc1` [compound 88]: the inhibition in vivo at 100 mg/kg in the test on hind paws of male rats (setting [1]) stood at 21.6%; in the test with male mice, 5.6%; with thrombus (setting [2]), 29.3%. Also, the inhibition at 100 µM in the test with platelet is 24.5%.
For `CCCCc1ccc(C(=O)c2ccc(F)cc2C)cc1` [compound 46], the figures for the inhibition in vivo at 100 mg/kg in the test on hind paws of male rats (setting [1]), in the test with male mice and in the test with thrombus (setting [2]) were 43.4%, 13.4% and 34.5%, respectively. In addition, the inhibition at 100 µM in the test on platelet was determined as 16.5%.
For `CCCCc1ccc(C(=O)c2ccc(CCC)cc2)cc1` [compound 98], in that order: 31.9%, 16.4%, 35.4% and 28.3%.
As to `Cc1ccc(C(=O)C(=O)c2ccccc2)cc1` [compound 54], the inhibition in vivo at 100 mg/kg turned out to be 25.5% in the test with hind paws of male rats (po); 11.3% with male mice; 20.3% in the test on thrombus (po, 5 h). Also, the inhibition at 100 µM in the test with platelet came to 15.4%.
For `CCCCCCCCCc1ccc(C(=O)c2ccc(CCCC)cc2)cc1` [compound 102], the inhibition in vivo at 100 mg/kg in the test with hind paws of male rats (setting [1]) came out at 22.4%; in the test on male mice it was 15.2%; in the test with thrombus (setting [2]), 29.7%. In the test with platelet, the inhibition at 100 µM was found to be 30.4%.
For `CCCc1ccc(C(=O)c2ccccc2C)cc1` [compound 90], in that order: 19.7%, 13.7%, 15% and 10.8%.
The corresponding values for `CCCCCc1ccc(C(=O)c2ccc(CCC)cc2)cc1` [compound 99] are 34.1%, 15.5%, 30.3% and 29.5%.
The corresponding values for `CCCCCCCCCCCCc1ccc(C(=O)c2ccccc2)cc1` [compound 69] are 12%, 6.7%, 12.7% and 13.5%.
Take `CCCCOc1ccc(C(=O)Cc2ccc(Cl)cc2)cc1` [compound 61]: the figures for the inhibition in vivo at 100 mg/kg in the test with hind paws of male rats (setting [1]), in the test with male mice and in the test on thrombus (setting [2]) were 16.7%, 15.1% and 8.5%, respectively. For the same molecule, the inhibition at 100 µM in the test with platelet was determined as 15.8%.
On to `COc1cc(OC)c(C(=O)c2ccccc2)c(OC)c1` [compound 76], for which the inhibition in vivo at 100 mg/kg in the test on hind paws of male rats (setting [1]) is 15.7%; in the test with male mice, 13.9%; in the test with thrombus (setting [2]), 18.4%. The inhibition at 100 µM in the test with platelet stood at 16.2%.
The corresponding values for `CCc1ccc(C(=O)c2ccc(C)cc2)cc1` [compound 33] are 43.9%, 15.5%, 28.3% and 20.5%.
In the case of `CCCCCCCCCCCCc1ccc(C(=O)Cc2ccccc2)cc1` [compound 52], the values for the inhibition in vivo at 100 mg/kg in the test on hind paws of male rats (setting [1]), in the test with male mice and in the test with thrombus (setting [2]) were 25.5%, 12.5% and 10.1%, respectively. Also, the inhibition at 100 µM in the test with platelet came to 6.8%.
For `CCCCOc1ccc(C(=O)c2ccc(CCCC)cc2)cc1` [compound 95], in that order: 17.1%, 14.5%, 32.3% and 30%.
For `CCCCCCc1ccc(C(=O)c2ccc(C)cc2)cc1` [compound 36], in that order: 34.8%, 13.7%, 28.1% and 15.1%.
Take `Cc1ccc(C(=O)c2ccccc2)c(C)c1C` [compound 31]: the inhibition in vivo at 100 mg/kg is 35.4% in the test with hind paws of male rats (setting [1]), 9.5% in the test on male mice and 23.5% with thrombus (setting [2]). The inhibition at 100 µM in the test with platelet came out at 18.2%.
For `CCCCCCc1ccc(C(=O)c2c(C)cc(C)cc2C)cc1` [compound 103], in that order: 29.7%, 14.2%, 35.8% and 29.5%.
For `CCCc1ccc(CCC)c(C(=O)c2ccccc2)c1` [compound 16], in that order: 45.2%, 12.4%, 21.5% and 8.6%.
The corresponding values for `CCCc1ccc(C(=O)c2ccccc2F)cc1` [compound 7] are 55.6%, 15%, 24.6% and 23%.
In the case of `CCCCc1ccc(C(=O)c2ccc(CCCC)cc2)cc1` [compound 43], the inhibition in vivo at 100 mg/kg was determined as 34% in the test with hind paws of male rats (setting [1]), 0% in the test with male mice and 86% in the test with thrombus (setting [2]). The inhibition at 100 µM with platelet is 3.5%.
The corresponding values for `Cc1ccc(C(=O)c2c(C)cc(C)cc2C)cc1` [compound 86] are 17.7%, 8.3%, 35.6% and 28.3%.
For `Cc1cc(C)c(C(=O)c2ccccc2)cc1C` [compound 32], in that order: 47.7%, 26.2%, 25% and 12.4%.
With `Cc1ccc(C(=O)Cc2ccccc2)cc1` [compound 48], the results for the inhibition in vivo at 100 mg/kg with hind paws of male rats (setting [1]), in the test with male mice and in the test on thrombus (setting [2]) were 26%, 12.5% and 18.3%, respectively. In addition, the inhibition at 100 µM in the test with platelet came out at 20.5%.
The corresponding values for `CCCCOc1ccc(C(=O)c2c(C)cc(C)cc2C)cc1` [compound 94] are 26.6%, 15.8%, 37.4% and 27.9%.
The corresponding values for `CCc1ccc(C(=O)C(=O)c2ccccc2)cc1` [compound 55] are 29%, 15.8%, 16.4% and 23.3%.
